Target: Tyrosine-protein kinase Lck (Homo sapiens, UniProt P06239)
Assay: Inhibition of protein-tyrosine kinase p56lck

Sequence of Tyrosine-protein kinase Lck (P06239 whole entry): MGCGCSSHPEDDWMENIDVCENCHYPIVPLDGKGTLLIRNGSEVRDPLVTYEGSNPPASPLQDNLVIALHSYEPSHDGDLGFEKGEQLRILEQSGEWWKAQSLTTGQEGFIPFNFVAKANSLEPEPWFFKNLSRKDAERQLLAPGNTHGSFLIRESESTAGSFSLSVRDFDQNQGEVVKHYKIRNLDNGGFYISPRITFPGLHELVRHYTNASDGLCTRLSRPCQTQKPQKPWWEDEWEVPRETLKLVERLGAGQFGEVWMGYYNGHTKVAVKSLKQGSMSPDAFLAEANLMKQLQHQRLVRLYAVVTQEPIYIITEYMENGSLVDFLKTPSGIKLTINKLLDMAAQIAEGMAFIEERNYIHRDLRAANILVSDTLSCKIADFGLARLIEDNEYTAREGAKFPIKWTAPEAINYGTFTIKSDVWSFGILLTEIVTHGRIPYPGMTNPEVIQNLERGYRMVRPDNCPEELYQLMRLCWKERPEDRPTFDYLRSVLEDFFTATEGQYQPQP

Compound | IC50
O=C(O)c1cc(-c2ccc3c(O)ccc(O)c3c2)ccc1O | 65 µM
O=C(O)c1cc(-c2ccc3ccccc3c2)ccc1O | > 200 µM
O=C(O)c1cc(-c2ccc3cc(O)c(O)cc3c2)ccc1O | 150 µM
O=C(O)c1cc(-c2ccc3c(O)c(O)ccc3c2)ccc1O | 42 µM

— ChEMBL document CHEMBL1126844, “Hydroxylated 2-(5'-salicyl)naphthalenes as protein-tyrosine kinase inhibitors” (J Med Chem, 1993)
